Measurements published in PubChem BioAssay AID270 (DTP/NCI, 2004).
Where “and” joins values, the source holds several entries; their conditions need not be identical. Identical values can stand only once. Records with an inconclusive call do not appear.

Test system: BDF1 mice, s.c. Lewis lung carcinoma, T/C %
Assay: NCI In Vivo Anticancer Drug Screen. Data for tumor model Lewis Lung Carcinoma (subcutaneous) in B6D2F1 (BDF1) mice
How it was run: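 Tumor-bearing mice were treated with test compound, and either survival or tumor size was recorded. Values are the treated-group measurement divided by that of the vehicle-treated control group.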

[1] = endpoint: mean tumor weight, dose: 15.0 mg/kg/injection, schedule: Q01DX011 (ip), vehicle: other, higher = larger tumour
[2] = endpoint: mean tumor weight, dose: 60.0 mg/kg/injection, schedule: Q01DX011 (ip), vehicle: other, higher = larger tumour
[3] = endpoint: median survival time, dose: 10.0 mg/kg/injection, schedule: Q01DX009 (ip), vehicle: saline, higher = longer survival
[4] = endpoint: median survival time, dose: 20.0 mg/kg/injection, schedule: Q01DX009 (ip), vehicle: saline, higher = longer survival

CC(C)c1ccc(O)c(=O)cc1
T/C (endpoint: mean tumor weight, dose: 37.5 mg/kg/injection, schedule: Q01DX011 (ip), vehicle: carboxymethylcellulose (CMC), higher = larger tumour): 52 % of control | T/C (endpoint: mean tumor weight, dose: 75.0 mg/kg/injection, schedule: Q01DX011 (ip), vehicle: carboxymethylcellulose (CMC), higher = larger tumour): 62 % of control

COc1ccc([C@@H]2c3cc4c(cc3C[C@H]3COC(=O)[C@@H]32)OCO4)cc1OC
T/C (endpoint: median survival time, dose: 11.0 mg/kg/injection, schedule: Q01DX009 (ip), vehicle: saline with Tween-80, higher = longer survival): 98 % of control | T/C (endpoint: median survival time, dose: 22.0 mg/kg/injection, schedule: Q01DX009 (ip), vehicle: saline with Tween-80, higher = longer survival): 100 % of control | T/C (endpoint: median survival time, dose: 33.0 mg/kg/injection, schedule: Q01DX009 (ip), vehicle: saline with Tween-80, higher = longer survival): 97 % of control

Cn1c(=O)[nH]c2nncnc2c1=O
T/C (endpoint: median survival time, dose: 8.0 mg/kg/injection, schedule: Q01DX009 (ip), vehicle: water, higher = longer survival): 108 % of control | T/C (endpoint: median survival time, dose: 16.0 mg/kg/injection, schedule: Q01DX009 (ip), vehicle: water, higher = longer survival): 86 % of control | T/C (endpoint: median survival time, dose: 37.5 micrograms/kg/injection, schedule: Q01DX009 (ip), vehicle: water, higher = longer survival): 123 % of control | T/C (endpoint: median survival time, dose: 75.0 micrograms/kg/injection, schedule: Q01DX009 (ip), vehicle: water, higher = longer survival): 123 % of control | T/C (endpoint: median survival time, dose: 150.0 micrograms/kg/injection, schedule: Q01DX009 (ip), vehicle: water, higher = longer survival): 111 % of control | T/C (endpoint: median survival time, dose: 300.0 micrograms/kg/injection, schedule: Q01DX009 (ip), vehicle: water, higher = longer survival): 123 % of control

CN(C)C(=S)N=Nc1c(O)[nH]c2ccccc12
T/C (endpoint: mean tumor weight, dose: 6.6 mg/kg/injection, schedule: Q01DX011 (ip), vehicle: carboxymethylcellulose (CMC), higher = larger tumour): 74 % of control | T/C (endpoint: mean tumor weight, dose: 10.0 mg/kg/injection, schedule: Q01DX011 (ip), vehicle: carboxymethylcellulose (CMC), higher = larger tumour): 89 % of control | T/C (endpoint: mean tumor weight, dose: 15.0 mg/kg/injection, schedule: Q01DX011 (ip), vehicle: carboxymethylcellulose (CMC), higher = larger tumour): 47 % of control and 65 % of control | T/C (endpoint: mean tumor weight, dose: 30.0 mg/kg/injection, schedule: Q01DX011 (ip), vehicle: carboxymethylcellulose (CMC), higher = larger tumour): 50 % of control

O=C(O)CC(NC(=O)CP(=O)(O)O)C(=O)O.[NH-]C1CCCCC1[NH-].[Pt+2] (centres undefined)
T/C (endpoint: median survival time, dose: 2.0 mg/kg/injection, schedule: Q01DX009 (ip), vehicle: other, higher = longer survival): 90 % of control | T/C (endpoint: median survival time, dose: 4.0 mg/kg/injection, schedule: Q01DX009 (ip), vehicle: other, higher = longer survival): 92 % of control | T/C (endpoint: median survival time, dose: 6.0 mg/kg/injection, schedule: Q01DX009 (ip), vehicle: other, higher = longer survival): 95 % of control | T/C (endpoint: median survival time, dose: 6.0 mg/kg/injection, schedule: Q04DX003 (ip), vehicle: other, higher = longer survival): 102 % of control | T/C (endpoint: median survival time, dose: 8.0 mg/kg/injection, schedule: Q01DX009 (ip), vehicle: other, higher = longer survival): 96 % of control | T/C (endpoint: median survival time, dose: 12.0 mg/kg/injection, schedule: Q04DX003 (ip), vehicle: other, higher = longer survival): 100 % of control | T/C (endpoint: median survival time, dose: 18.0 mg/kg/injection, schedule: Q04DX003 (ip), vehicle: other, higher = longer survival): 88 % of control | T/C (endpoint: median survival time, dose: 24.0 mg/kg/injection, schedule: Q04DX003 (ip), vehicle: other, higher = longer survival): 102 % of control

CC(=O)OC1CCC(NC(=O)N(CCCl)N=O)CC1 (centres undefined)
T/C (endpoint: median survival time, dose: 24.0 mg/kg/injection, schedule: Q01DX001 (ip), vehicle: other, higher = longer survival): 95 % of control

CCCCn1cnc2c(=S)nc(N)[nH]c21
T/C (endpoint: mean tumor weight, dose: 1.0 mg/kg/injection, schedule: Q01DX011 (ip), vehicle: other, higher = larger tumour): 73 % of control | T/C (endpoint: mean tumor weight, dose: 2.0 mg/kg/injection, schedule: Q01DX011 (ip), vehicle: other, higher = larger tumour): 59 % of control | T/C (endpoint: mean tumor weight, dose: 4.0 mg/kg/injection, schedule: Q01DX011 (ip), vehicle: other, higher = larger tumour): 39 % of control | T/C (endpoint: mean tumor weight, dose: 8.0 mg/kg/injection, schedule: Q01DX011 (ip), vehicle: other, higher = larger tumour): 58 % of control and 63 % of control | T/C (endpoint: mean tumor weight, dose: 16.0 mg/kg/injection, schedule: Q01DX011 (ip), vehicle: other, higher = larger tumour): 61 % of control | T/C (endpoint: mean tumor weight, dose: 32.0 mg/kg/injection, schedule: Q01DX011 (ip), vehicle: other, higher = larger tumour): 34 % of control

C1CC[N-]CC1.C1CC[N-]CC1.C1CC[N-]CC1.C1CC[N-]CC1.[Cl][Co][Cl]
T/C [1]: 63 % of control | T/C (endpoint: mean tumor weight, dose: 30.0 mg/kg/injection, schedule: Q01DX011 (ip), vehicle: other, higher = larger tumour): 68 % of control | T/C [2]: 56 % of control | T/C (endpoint: median survival time, dose: 2.5 mg/kg/injection, schedule: Q01DX009 (ip), vehicle: saline, higher = longer survival): 94 % of control | T/C [3]: 105 % of control | T/C [4]: 95 % of control | T/C (endpoint: median survival time, dose: 40.0 mg/kg/injection, schedule: Q01DX009 (ip), vehicle: saline, higher = longer survival): 93 % of control

CC[n+]1ccc(Nc2ccc(NC(=O)c3ccc(Nc4cc[n+](CC)c5ccc(N)cc45)cc3)cc2)cc1
T/C (endpoint: mean tumor weight, dose: 0.5 mg/kg/injection, schedule: Q01DX011 (ip), vehicle: saline, higher = larger tumour): 86 % of control | T/C (endpoint: mean tumor weight, dose: 1.0 mg/kg/injection, schedule: Q01DX011 (ip), vehicle: saline, higher = larger tumour): 107 % of control | T/C (endpoint: mean tumor weight, dose: 2.0 mg/kg/injection, schedule: Q01DX011 (ip), vehicle: saline, higher = larger tumour): 73 % of control | T/C (endpoint: mean tumor weight, dose: 4.0 mg/kg/injection, schedule: Q01DX011 (ip), vehicle: saline, higher = larger tumour): 33 % of control

CCN1C=C/C(=C\C=C/c2cc[n+](CC)c3ccccc23)c2ccccc21
T/C (endpoint: median survival time, dose: 6.0 micrograms/kg/injection, schedule: Q01DX009 (ip), vehicle: saline, higher = longer survival): 114 % of control | T/C (endpoint: median survival time, dose: 6.2 micrograms/kg/injection, schedule: Q01DX009 (ip), vehicle: saline with Tween-80, higher = longer survival): 104 % of control | T/C (endpoint: median survival time, dose: 12.0 micrograms/kg/injection, schedule: Q01DX009 (ip), vehicle: saline, higher = longer survival): 209 % of control | T/C (endpoint: median survival time, dose: 12.5 micrograms/kg/injection, schedule: Q01DX009 (ip), vehicle: saline with Tween-80, higher = longer survival): 98 % of control | T/C (endpoint: median survival time, dose: 25.0 micrograms/kg/injection, schedule: Q01DX009 (ip), vehicle: saline with Tween-80, higher = longer survival): 101 % of control | T/C (endpoint: median survival time, dose: 25.0 micrograms/kg/injection, schedule: Q01DX009 (ip), vehicle: saline, higher = longer survival): 208 % of control | T/C (endpoint: median survival time, dose: 50.0 micrograms/kg/injection, schedule: Q01DX009 (ip), vehicle: saline with Tween-80, higher = longer survival): 98 % of control | T/C (endpoint: median survival time, dose: 50.0 micrograms/kg/injection, schedule: Q01DX009 (ip), vehicle: saline, higher = longer survival): 209 % of control | T/C (endpoint: median survival time, dose: 100.0 micrograms/kg/injection, schedule: Q01DX009 (ip), vehicle: saline with Tween-80, higher = longer survival): 104 % of control

O=[N+]([O-])c1cc([N+](=O)[O-])c(Br)cc1Cl
T/C (endpoint: median survival time, dose: 2.5 mg/kg/injection, schedule: Q01DX009 (ip), vehicle: Klucel (hydroxypropylcellulose) (HPC), higher = longer survival): 104 % of control | T/C (endpoint: median survival time, dose: 5.0 mg/kg/injection, schedule: Q01DX009 (ip), vehicle: Klucel (hydroxypropylcellulose) (HPC), higher = longer survival): 97 % of control | T/C (endpoint: median survival time, dose: 10.0 mg/kg/injection, schedule: Q01DX009 (ip), vehicle: Klucel (hydroxypropylcellulose) (HPC), higher = longer survival): 105 % of control

SCc1ccccn1
T/C (endpoint: mean tumor weight, dose: 37.8 mg/kg/injection, schedule: Q01DX011 (ip), vehicle: carboxymethylcellulose (CMC), higher = larger tumour): 95 % of control | T/C (endpoint: mean tumor weight, dose: 75.5 mg/kg/injection, schedule: Q01DX011 (ip), vehicle: carboxymethylcellulose (CMC), higher = larger tumour): 97 % of control | T/C (endpoint: mean tumor weight, dose: 150.0 mg/kg/injection, schedule: Q01DX011 (ip), vehicle: carboxymethylcellulose (CMC), higher = larger tumour): 90 % of control

Cc1ccc2oc(-c3ccccc3)c(O)c(=O)c2c1
T/C (endpoint: mean tumor weight, dose: 18.8 mg/kg/injection, schedule: Q01DX010 (ip), vehicle: saline, higher = larger tumour): 77 % of control | T/C (endpoint: mean tumor weight, dose: 37.5 mg/kg/injection, schedule: Q01DX010 (ip), vehicle: saline, higher = larger tumour): 73 % of control | T/C (endpoint: mean tumor weight, dose: 75.0 mg/kg/injection, schedule: Q01DX010 (ip), vehicle: saline, higher = larger tumour): 57 % of control | T/C (endpoint: mean tumor weight, dose: 150.0 mg/kg/injection, schedule: Q01DX010 (ip), vehicle: saline, higher = larger tumour): 86 % of control

C[N+](C)(C)CCOC(=O)/C=C/c1cnc[nH]1
T/C (endpoint: median survival time, dose: 5.0 mg/kg/injection, schedule: Q01DX009 (ip), vehicle: saline, higher = longer survival): 102 % of control | T/C [3]: 94 % of control | T/C [4]: 95 % of control

CC(=O)OC(C)(C)/C=C/C(=O)[C@](C)(O)[C@H]1[C@H](O)C[C@@]2(C)[C@@H]3CC=C4[C@@H](CC[C@H](O)C4(C)C)[C@]3(CO)C(=O)C[C@]12C
T/C (endpoint: mean tumor weight, dose: 0.57 mg/kg/injection, schedule: Q01DX011 (ip), vehicle: saline, higher = larger tumour): 67 % of control

Cc1ccc(N=NN(C)C)cc1
T/C [1]: 67 % of control | T/C [2]: 57 % of control

CCn1c2ccccc2c2cc(NC(=O)N(CCCl)N=O)ccc21
T/C (endpoint: median survival time, dose: 50.0 mg/kg/injection, schedule: Q01DX001 (ip), vehicle: saline with Tween-80, higher = longer survival): 89 % of control | T/C (endpoint: median survival time, dose: 100.0 mg/kg/injection, schedule: Q01DX001 (ip), vehicle: saline with Tween-80, higher = longer survival): 96 % of control

CSc1ccc(NC(=O)N(CCCl)N=O)cc1
T/C (endpoint: median survival time, dose: 6.25 mg/kg/injection, schedule: Q01DX009 (ip), vehicle: Klucel (hydroxypropylcellulose) (HPC), higher = longer survival): 115 % of control | T/C (endpoint: median survival time, dose: 12.5 mg/kg/injection, schedule: Q01DX009 (ip), vehicle: Klucel (hydroxypropylcellulose) (HPC), higher = longer survival): 90 % of control | T/C (endpoint: median survival time, dose: 25.0 mg/kg/injection, schedule: Q01DX009 (ip), vehicle: Klucel (hydroxypropylcellulose) (HPC), higher = longer survival): 106 % of control | T/C (endpoint: median survival time, dose: 50.0 mg/kg/injection, schedule: Q01DX009 (ip), vehicle: Klucel (hydroxypropylcellulose) (HPC), higher = longer survival): 103 % of control

C=C(C)C1CC=C(C)CC1 (centres undefined)
T/C (endpoint: mean tumor weight, dose: 100.0 mg/kg/injection, schedule: Q01DX011 (ip), vehicle: carboxymethylcellulose (CMC), higher = larger tumour): 65 % of control | T/C (endpoint: mean tumor weight, dose: 200.0 mg/kg/injection, schedule: Q01DX011 (ip), vehicle: carboxymethylcellulose (CMC), higher = larger tumour): 43 % of control
